Data from article doi:10.1101/2024.08.13.607785v1 (biorxiv, 2024).
Where two headings read alike, the source gives them in different places. Blank lines part the entries; values can stand above or below the molecule they belong to.

Legend:
Experiment in all cases: biochemical
Design in all cases: species or system human cell line lysate
[1] = target: Tyrosine-protein kinase Fer ; FER ; P16591 (Homo sapiens, UniProt P16591)
[2] = target: Wee1-like protein kinase ; WEE1 ; P30291 (Homo sapiens, UniProt P30291)
[3] = target: Mitogen-activated protein kinase kinase kinase kinase 5 ; MAP4K5 ; Q9Y4K4 (Homo sapiens, UniProt Q9Y4K4)
[4] = target: Isoform 2 of Protein-tyrosine kinase 2-beta ; PTK2B ; Q14289-2 (Homo sapiens, UniProt Q14289)
[5] = target: Serine/threonine-protein kinase mTOR ; MTOR ; P42345 (Homo sapiens, UniProt P42345)
[6] = target: cAMP-dependent protein kinase catalytic subunit PRKX ; PRKX ; P51817 (Homo sapiens, UniProt P51817)
[7] = target: Casein kinase I isoform gamma-2 ; CSNK1G2 ; P78368 (Homo sapiens, UniProt P78368)
[8] = target: Serine/threonine-protein kinase LMTK2 ; LMTK2 ; Q8IWU2 (Homo sapiens, UniProt Q8IWU2)
[9] = target: Protein kinase C iota type ; PRKCI ; P41743 (Homo sapiens, UniProt P41743)
[10] = target: Serine/threonine-protein kinase LATS1 ; LATS1 ; O95835 (Homo sapiens, UniProt O95835)
[11] = target: Ribosomal protein S6 kinase beta-1 ; RPS6KB1 ; P23443 (Homo sapiens, UniProt P23443)
[12] = target: Protein-tyrosine kinase 2-beta ; PTK2B ; Q14289 (Homo sapiens, UniProt Q14289)
[13] = target: Serine/threonine-protein kinase 16 ; STK16 ; O75716 (Homo sapiens, UniProt O75716)
[14] = target: Serine/threonine-protein kinase N3 ; PKN3 ; Q6P5Z2 (Homo sapiens, UniProt Q6P5Z2)
[15] = target: Tyrosine-protein kinase Fes/Fps ; FES ; P07332 (Homo sapiens, UniProt P07332)
[16] = target: Serine/threonine-protein kinase RIO1 ; RIOK1 ; Q9BRS2 (Homo sapiens, UniProt Q9BRS2)
[17] = target: Isoform Mxi2 of Mitogen-activated protein kinase 14 ; MAPK14 ; Q16539-3 (Homo sapiens, UniProt Q16539)
[18] = target: Inhibitor of nuclear factor kappa-B kinase subunit epsilon ; IKBKE ; Q14164 (Homo sapiens, UniProt Q14164)
[19] = target: Serine/threonine-protein kinase TAO1 ; TAOK1 ; Q7L7X3 (Homo sapiens, UniProt Q7L7X3)
[20] = target: Phosphatidylinositol 4-kinase alpha ; PI4KA ; P42356 (Homo sapiens, UniProt P42356)
[21] = target: Microtubule-associated serine/threonine-protein kinase 3 ; MAST3 ; O60307 (Homo sapiens, UniProt O60307)
[22] = target: Isoform Beta-II of Protein kinase C beta type ; PRKCB ; P05771-2 (Homo sapiens, UniProt P05771)
[23] = target: Serine/threonine-protein kinase SIK3 ; SIK3 ; Q9Y2K2 (Homo sapiens, UniProt Q9Y2K2)
[24] = read-out: BAY-1251152 (10 µM) / %Intensity relative to DMSO
[25] = read-out: BAY-1143572 (10 µM) / %Intensity relative to DMSO

cAMP-dependent protein kinase catalytic subunit PRKX ; PRKX ; P51817, sequence (P51817 whole entry, canonical isoform, one chain of several): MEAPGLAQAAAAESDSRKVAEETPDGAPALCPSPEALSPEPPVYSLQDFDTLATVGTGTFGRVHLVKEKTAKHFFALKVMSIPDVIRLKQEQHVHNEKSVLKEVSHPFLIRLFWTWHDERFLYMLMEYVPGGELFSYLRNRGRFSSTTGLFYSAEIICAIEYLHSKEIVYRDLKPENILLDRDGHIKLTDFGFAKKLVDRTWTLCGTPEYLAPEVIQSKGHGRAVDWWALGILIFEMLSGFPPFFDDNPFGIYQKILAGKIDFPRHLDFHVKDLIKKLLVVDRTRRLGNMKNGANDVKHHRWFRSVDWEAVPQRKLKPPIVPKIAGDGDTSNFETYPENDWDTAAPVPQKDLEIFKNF
Isoform Beta-II of Protein kinase C beta type ; PRKCB ; P05771-2, sequence (P05771 whole entry, canonical isoform): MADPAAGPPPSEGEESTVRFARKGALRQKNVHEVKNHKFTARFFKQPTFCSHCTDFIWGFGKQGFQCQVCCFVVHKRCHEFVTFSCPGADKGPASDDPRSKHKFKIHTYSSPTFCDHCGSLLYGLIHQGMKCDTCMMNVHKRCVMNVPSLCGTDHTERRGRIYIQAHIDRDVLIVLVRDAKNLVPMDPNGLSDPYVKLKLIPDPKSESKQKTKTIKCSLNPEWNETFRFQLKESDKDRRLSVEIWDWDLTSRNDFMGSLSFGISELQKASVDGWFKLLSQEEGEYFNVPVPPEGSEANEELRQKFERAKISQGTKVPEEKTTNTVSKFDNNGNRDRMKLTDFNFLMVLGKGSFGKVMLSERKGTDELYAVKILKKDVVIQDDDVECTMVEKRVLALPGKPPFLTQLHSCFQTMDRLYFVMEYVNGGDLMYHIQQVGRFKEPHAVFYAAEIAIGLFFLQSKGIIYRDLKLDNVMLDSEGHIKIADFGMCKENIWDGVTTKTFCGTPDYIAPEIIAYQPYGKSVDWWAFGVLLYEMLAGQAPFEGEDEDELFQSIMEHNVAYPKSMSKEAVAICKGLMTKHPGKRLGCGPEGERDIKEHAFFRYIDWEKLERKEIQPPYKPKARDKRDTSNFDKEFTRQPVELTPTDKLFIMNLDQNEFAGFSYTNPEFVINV
Microtubule-associated serine/threonine-protein kinase 3 ; MAST3 ; O60307, sequence (O60307 whole entry, canonical isoform, one chain of several): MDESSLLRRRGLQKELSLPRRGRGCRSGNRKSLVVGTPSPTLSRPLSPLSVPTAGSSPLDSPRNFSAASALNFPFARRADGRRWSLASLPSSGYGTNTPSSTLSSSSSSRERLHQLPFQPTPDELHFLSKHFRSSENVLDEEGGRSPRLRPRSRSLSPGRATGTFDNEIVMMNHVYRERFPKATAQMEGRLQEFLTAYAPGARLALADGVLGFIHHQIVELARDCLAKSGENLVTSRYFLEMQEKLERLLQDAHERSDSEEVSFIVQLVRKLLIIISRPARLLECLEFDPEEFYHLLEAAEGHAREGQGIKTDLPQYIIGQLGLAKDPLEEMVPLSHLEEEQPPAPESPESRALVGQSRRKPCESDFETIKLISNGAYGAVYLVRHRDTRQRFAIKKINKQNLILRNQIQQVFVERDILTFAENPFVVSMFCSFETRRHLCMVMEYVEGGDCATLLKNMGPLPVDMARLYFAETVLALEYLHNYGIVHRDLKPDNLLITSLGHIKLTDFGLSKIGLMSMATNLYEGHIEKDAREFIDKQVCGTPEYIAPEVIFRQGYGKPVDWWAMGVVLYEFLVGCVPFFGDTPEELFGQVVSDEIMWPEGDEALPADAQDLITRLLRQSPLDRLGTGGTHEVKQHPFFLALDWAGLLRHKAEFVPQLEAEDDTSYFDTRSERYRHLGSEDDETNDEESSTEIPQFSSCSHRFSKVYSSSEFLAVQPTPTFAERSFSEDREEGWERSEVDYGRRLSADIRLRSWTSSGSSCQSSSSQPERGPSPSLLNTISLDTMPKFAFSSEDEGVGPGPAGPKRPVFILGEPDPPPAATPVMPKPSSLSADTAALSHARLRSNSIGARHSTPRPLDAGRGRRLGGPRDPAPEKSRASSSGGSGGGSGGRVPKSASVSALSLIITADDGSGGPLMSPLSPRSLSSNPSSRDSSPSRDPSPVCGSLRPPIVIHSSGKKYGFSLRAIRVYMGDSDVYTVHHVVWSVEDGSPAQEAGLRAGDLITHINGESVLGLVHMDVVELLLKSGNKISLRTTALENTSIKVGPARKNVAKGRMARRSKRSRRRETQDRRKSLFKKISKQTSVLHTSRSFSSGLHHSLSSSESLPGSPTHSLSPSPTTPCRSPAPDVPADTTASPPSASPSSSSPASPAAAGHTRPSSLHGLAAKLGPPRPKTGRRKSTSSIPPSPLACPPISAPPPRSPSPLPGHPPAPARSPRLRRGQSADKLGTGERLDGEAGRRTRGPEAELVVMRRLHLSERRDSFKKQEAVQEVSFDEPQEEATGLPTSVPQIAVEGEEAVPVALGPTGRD
Serine/threonine-protein kinase LATS1 ; LATS1 ; O95835, sequence (O95835 whole entry, one chain of several): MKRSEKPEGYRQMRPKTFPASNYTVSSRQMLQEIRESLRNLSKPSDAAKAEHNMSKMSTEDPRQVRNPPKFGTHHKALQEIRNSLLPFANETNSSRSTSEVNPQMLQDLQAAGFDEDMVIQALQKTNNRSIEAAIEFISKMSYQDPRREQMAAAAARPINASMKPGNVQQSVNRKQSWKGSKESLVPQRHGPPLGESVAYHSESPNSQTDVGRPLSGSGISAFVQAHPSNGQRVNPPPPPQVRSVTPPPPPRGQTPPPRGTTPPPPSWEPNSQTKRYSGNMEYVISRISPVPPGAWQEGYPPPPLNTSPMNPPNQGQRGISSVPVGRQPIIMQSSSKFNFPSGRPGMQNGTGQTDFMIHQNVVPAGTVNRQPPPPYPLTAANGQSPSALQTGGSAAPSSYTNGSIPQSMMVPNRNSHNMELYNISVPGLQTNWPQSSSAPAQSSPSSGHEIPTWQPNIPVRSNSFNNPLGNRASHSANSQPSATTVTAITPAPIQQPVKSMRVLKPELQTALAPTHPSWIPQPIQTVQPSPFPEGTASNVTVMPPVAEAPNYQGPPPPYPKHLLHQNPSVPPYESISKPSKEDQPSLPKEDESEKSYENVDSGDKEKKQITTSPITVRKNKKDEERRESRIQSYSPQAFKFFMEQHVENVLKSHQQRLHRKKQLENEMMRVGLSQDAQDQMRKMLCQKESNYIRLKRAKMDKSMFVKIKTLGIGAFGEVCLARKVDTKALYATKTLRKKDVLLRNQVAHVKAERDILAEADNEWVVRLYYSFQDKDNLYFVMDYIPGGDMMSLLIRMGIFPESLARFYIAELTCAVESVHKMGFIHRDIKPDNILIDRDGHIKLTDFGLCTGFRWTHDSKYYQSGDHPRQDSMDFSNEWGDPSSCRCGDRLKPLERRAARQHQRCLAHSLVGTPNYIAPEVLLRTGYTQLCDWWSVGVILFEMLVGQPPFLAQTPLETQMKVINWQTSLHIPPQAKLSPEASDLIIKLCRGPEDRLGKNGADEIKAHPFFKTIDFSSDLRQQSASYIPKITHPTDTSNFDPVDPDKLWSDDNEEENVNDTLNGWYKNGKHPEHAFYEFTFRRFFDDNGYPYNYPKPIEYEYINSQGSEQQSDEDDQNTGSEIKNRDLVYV
Serine/threonine-protein kinase SIK3 ; SIK3 ; Q9Y2K2, sequence (Q9Y2K2 whole entry, one chain of several): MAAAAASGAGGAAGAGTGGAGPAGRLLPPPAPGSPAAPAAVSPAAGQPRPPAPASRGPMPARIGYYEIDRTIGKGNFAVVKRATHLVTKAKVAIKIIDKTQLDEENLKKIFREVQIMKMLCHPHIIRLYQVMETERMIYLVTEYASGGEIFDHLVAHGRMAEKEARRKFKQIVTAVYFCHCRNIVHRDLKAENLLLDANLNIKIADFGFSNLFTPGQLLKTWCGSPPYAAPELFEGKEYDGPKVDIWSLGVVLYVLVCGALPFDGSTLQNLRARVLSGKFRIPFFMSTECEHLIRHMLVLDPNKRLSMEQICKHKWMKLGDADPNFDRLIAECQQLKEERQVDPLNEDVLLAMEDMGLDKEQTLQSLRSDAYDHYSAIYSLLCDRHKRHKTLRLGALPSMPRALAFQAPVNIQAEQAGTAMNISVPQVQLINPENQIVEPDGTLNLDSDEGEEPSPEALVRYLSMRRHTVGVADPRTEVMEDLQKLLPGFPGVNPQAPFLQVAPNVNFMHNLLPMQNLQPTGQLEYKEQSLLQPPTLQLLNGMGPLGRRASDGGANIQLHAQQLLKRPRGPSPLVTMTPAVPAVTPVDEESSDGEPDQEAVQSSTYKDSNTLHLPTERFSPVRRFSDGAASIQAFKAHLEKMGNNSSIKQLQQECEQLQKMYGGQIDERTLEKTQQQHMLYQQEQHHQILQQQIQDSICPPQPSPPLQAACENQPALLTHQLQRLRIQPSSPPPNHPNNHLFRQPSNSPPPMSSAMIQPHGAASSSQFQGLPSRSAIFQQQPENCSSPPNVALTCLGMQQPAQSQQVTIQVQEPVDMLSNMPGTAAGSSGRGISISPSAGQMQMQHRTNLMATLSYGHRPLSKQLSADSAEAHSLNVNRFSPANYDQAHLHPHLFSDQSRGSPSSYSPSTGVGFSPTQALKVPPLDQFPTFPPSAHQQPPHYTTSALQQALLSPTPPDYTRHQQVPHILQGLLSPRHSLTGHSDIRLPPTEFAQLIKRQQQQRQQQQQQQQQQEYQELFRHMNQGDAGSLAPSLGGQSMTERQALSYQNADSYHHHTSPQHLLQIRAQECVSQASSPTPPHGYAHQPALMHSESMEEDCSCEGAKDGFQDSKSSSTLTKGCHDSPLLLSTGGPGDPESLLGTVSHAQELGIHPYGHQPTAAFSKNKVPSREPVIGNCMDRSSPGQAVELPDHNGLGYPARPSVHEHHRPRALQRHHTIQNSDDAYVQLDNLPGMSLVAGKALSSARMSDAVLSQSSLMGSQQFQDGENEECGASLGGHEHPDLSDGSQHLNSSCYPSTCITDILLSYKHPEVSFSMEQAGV
Serine/threonine-protein kinase 16 ; STK16 ; O75716, sequence (O75716 whole entry, one chain of several): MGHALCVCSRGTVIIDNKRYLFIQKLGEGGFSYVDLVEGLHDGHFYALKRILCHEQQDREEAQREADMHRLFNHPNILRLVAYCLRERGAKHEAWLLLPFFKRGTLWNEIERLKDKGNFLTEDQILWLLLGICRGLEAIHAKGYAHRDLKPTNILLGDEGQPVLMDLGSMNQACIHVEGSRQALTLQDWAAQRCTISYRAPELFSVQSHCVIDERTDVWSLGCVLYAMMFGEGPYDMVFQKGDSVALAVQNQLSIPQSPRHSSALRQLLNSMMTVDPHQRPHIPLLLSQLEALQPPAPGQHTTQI

- remaining activity at 10 µM [1, 24]: 103%
- remaining activity at 10 µM [2, 24]: 102%
- remaining activity at 10 µM [3, 24]: 55.3%
- remaining activity at 10 µM [4, 24]: 98.1%
- remaining activity at 10 µM [5, 24]: 103%
- remaining activity at 10 µM [6, 24]: 140%
- remaining activity at 10 µM [7, 24]: 131%
- remaining activity at 10 µM [8, 24]: 126%
- remaining activity at 10 µM [9, 24]: 99.3%
- remaining activity at 10 µM [10, 24]: 114%
- remaining activity at 10 µM [11, 24]: 129%
- remaining activity at 10 µM [12, 24]: 176%
- remaining activity at 10 µM [13, 24]: 61.5%
- remaining activity at 10 µM [14, 24]: 114%
- remaining activity at 10 µM [15, 24]: 96.1%
- remaining activity at 10 µM [16, 24]: 96.7%
- remaining activity at 10 µM [17, 24]: 119%
- remaining activity at 10 µM [18, 24]: 112%
- remaining activity at 10 µM [19, 24]: 88.3%
- remaining activity at 10 µM [20, 24]: 100%
- remaining activity at 10 µM [21, 24]: 82.9%
- remaining activity at 10 µM [22, 24]: 119%
- remaining activity at 10 µM [23, 24]: 106%
SMILES: COc1cc(F)ccc1-c1cc(Nc2cc(CS(C)(=N)=O)ccn2)ncc1F (stereo not shown) [BAY-1251152]

- remaining activity at 10 µM [1, 25]: 112%
- remaining activity at 10 µM [2, 25]: 101%
- remaining activity at 10 µM [3, 25]: 97.6%
- remaining activity at 10 µM [4, 25]: 100%
- remaining activity at 10 µM [5, 25]: 98.9%
- remaining activity at 10 µM [6, 25]: 152%
- remaining activity at 10 µM [7, 25]: 137%
- remaining activity at 10 µM [8, 25]: 128%
- remaining activity at 10 µM [9, 25]: 108%
- remaining activity at 10 µM [10, 25]: 118%
- remaining activity at 10 µM [11, 25]: 137%
- remaining activity at 10 µM [12, 25]: 217%
- remaining activity at 10 µM [13, 25]: 64.2%
- remaining activity at 10 µM [14, 25]: 121%
- remaining activity at 10 µM [15, 25]: 102%
- remaining activity at 10 µM [16, 25]: 106%
- remaining activity at 10 µM [17, 25]: 128%
- remaining activity at 10 µM [18, 25]: 110%
- remaining activity at 10 µM [19, 25]: 114%
- remaining activity at 10 µM [20, 25]: 96.8%
- remaining activity at 10 µM [21, 25]: 79.4%
- remaining activity at 10 µM [22, 25]: 121%
- remaining activity at 10 µM [23, 25]: 109%
SMILES: COc1cc(F)ccc1-c1ncnc(Nc2cccc(C[S@](C)(=N)=O)c2)n1 [BAY-1143572]
